Measurements taken from article PMC6222927, “Aminobenzosuberone Scaffold as a Modular Chemical Tool for the Inhibition of Therapeutically Relevant M1 Aminopeptidases” (Molecules : A Journal of Synthetic Chemistry and Natural …, 2018).

What was measured:
[1] = molecular target: pAPN from porcine kidney; details: Dixon plots; cited from earlier work
[2] = molecular target: human puromycine sensitive aminopeptidase (rHsPSA) (Homo sapiens, UniProt P55786); experiment: rHsPSA inhibition, Leu-pNA substrate, Dixon method; type: biochemical; details: triplicate, SD
Description: Enzyme activity assays were carried out in 10 mM Tris-HCl buffer at pH 7.5 with 150 mM NaCl, enzyme, 100 µM substrate (Leu-pNA) in a 100 μL reaction at 37 °C. The absorbance was read at 405 nm. Concentrations ranging from 1 nM to 100 μM of inhibitors (dissolved in DMSO) were incubated with each of the enzymes ([…]) for 30 min at 37 °C in a 96 well plate. After addition of the substrate, immediate increase in absorption was measured. All inhibition assays were performed in triplicates and initial velocities were measured. Percentage inhibition and log values of inhibitor concentrations were plotted using SigmaPlot to determine IC50 values. Ki values were determined by the Dixon method. The assay consists of reaction buffer, enzyme and varied concentrations of Leu-pNA (25, 50, 100, 200 and 400 µM). […]. All the reactions were performed in triplicates, SD values were reported.

[3] = molecular target: aminopeptidase from A. proteolytica (AAP); design: method as in PMID 21843945; details: ref 58; cited from earlier work
[4] = molecular target: E. coli rEcPepN (Escherichia coli, UniProt P04825); experiment: rEcPepN inhibition, Leu-pNA substrate, Dixon method; type: biochemical
Description: Enzyme activity assays were carried out in 10 mM Tris-HCl buffer at pH 7.5 with 150 mM NaCl, enzyme, 100 µM substrate (Leu-pNA) in a 100 μL reaction at 37 °C. The absorbance was read at 405 nm. Concentrations ranging from 1 nM to 100 μM of inhibitors (dissolved in DMSO) were incubated with each of the enzymes ([…]) for 30 min at 37 °C in a 96 well plate. After addition of the substrate, immediate increase in absorption was measured. All inhibition assays were performed in triplicates and initial velocities were measured. Percentage inhibition and log values of inhibitor concentrations were plotted using SigmaPlot to determine IC50 values. Ki values were determined by the Dixon method. The assay consists of reaction buffer, enzyme and varied concentrations of Leu-pNA (25, 50, 100, 200 and 400 µM). […] Data were plotted as 1/rate versus inhibitor concentration for each substrate concentration and a linear fit was calculated by non-linear regression using SigmaPlot12.5. All the reactions were performed in triplicates, SD values were reported.

human puromycine sensitive aminopeptidase (rHsPSA), sequence (P55786 whole entry): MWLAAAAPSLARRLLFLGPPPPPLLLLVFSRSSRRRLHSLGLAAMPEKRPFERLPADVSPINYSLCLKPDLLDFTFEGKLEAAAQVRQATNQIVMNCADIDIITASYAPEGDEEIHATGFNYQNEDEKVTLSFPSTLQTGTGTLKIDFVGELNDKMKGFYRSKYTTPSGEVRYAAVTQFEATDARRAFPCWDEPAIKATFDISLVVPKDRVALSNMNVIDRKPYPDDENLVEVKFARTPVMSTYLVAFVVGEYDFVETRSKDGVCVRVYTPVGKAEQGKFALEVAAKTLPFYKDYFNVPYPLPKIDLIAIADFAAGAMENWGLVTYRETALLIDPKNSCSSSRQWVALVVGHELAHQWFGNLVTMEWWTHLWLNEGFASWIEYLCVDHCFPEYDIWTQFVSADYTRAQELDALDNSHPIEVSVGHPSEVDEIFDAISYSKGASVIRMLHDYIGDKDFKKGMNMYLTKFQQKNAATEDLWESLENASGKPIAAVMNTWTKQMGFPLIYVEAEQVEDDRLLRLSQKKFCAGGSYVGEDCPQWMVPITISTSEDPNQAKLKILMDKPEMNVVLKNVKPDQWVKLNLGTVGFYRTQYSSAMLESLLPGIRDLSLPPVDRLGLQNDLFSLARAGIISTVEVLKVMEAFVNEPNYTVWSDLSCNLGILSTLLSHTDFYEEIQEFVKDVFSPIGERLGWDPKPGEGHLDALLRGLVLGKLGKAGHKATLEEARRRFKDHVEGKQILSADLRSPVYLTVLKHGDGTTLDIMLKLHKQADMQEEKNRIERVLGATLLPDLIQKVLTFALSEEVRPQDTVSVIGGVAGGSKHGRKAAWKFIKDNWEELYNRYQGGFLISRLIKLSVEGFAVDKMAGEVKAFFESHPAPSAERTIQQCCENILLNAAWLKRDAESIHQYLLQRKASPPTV
E. coli rEcPepN, sequence (P04825 whole entry): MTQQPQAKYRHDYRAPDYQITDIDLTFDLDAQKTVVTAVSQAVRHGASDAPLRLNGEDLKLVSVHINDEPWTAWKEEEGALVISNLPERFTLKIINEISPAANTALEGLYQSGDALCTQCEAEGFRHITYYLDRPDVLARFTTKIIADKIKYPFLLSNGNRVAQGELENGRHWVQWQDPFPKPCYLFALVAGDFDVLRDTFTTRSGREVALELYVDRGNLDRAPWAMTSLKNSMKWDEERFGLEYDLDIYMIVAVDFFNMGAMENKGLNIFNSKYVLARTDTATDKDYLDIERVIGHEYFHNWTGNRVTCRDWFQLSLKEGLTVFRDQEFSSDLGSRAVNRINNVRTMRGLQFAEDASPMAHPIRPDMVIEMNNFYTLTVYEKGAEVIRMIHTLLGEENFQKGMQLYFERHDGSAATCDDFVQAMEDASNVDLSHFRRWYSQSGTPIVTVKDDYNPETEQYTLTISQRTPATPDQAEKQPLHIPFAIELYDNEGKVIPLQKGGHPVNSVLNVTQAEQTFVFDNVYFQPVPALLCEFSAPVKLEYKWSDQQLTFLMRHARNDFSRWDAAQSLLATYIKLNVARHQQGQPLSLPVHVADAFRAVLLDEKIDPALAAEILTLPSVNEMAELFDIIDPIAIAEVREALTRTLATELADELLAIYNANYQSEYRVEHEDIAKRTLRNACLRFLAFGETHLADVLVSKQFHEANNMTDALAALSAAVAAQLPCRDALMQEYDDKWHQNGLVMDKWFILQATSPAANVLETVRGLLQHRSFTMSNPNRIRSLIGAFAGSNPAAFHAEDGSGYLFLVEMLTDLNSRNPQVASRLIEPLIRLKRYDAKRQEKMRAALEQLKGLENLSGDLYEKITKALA

For NC1CCc2c(Br)cccc2CC1=O (stereo not shown) [21e], the Ki [1] is given as 20 nM, the Ki [2] is given as 1070 ± 63 nM and the Ki [3] is given as > 100000 nM. For the same compound, the Ki [4] was 4590 ± 170 nM.
